Counter-ions that a name gives are not always drawn. Like-named read-outs stand apart in the source and are kept apart here. Blank lines part the entries; values can stand above or below the molecule they belong to.
Assays:
platelets = format: cell-based
Experimental: The viral inactivation values and in vitro properties of platelets subjected to viral inactivation treatment using various derivatives of psoralen are summarized in Table 1.
2 mL PRP samples (plastic disposable petri dishes) containing 0.1 mg/mL
sensitizer were irradiated with UVA for 6 min. (1.19 J/cm^2). The
intensity of UVA radiation at sample position was measured at 3.3
mW/cm^2. The data was obtained from three separate experiments using
different platelet concentrates. Values are mean ± SD.

cell damage = test: Cell damage by derivatives with free hydrogen atoms on the ammonium group; format: cell-based; conditions: words
.phi.6 phage [1] = test: Comparison of viral inactivation efficiencies of brominated and non-brominated sensitizers in platelets (UVA); format: cell-based; conditions: 8B versus 8C, 0.1 mg/ml, UVA 3.3 mW/cm^2
Experimental: To test the viral inactivation efficiency of brominated sensitizers, platelet preparations (2 ml, PRP) were spiked with .phi.6 phage and brominated psoralen (8B) and non-brominated psoralen(8C) were added to obtain final sensitizer concentration of 0.1 mg/ml. The samples were exposed to UVA light in a home made reactor consisting of 4 UVA lamps for the indicated time periods. The petri dishes containing samples were mixed on an orbital shaker during UVA exposure. The UVA light intensity at the sample position was measured at 3.3 mW/cm^2. The residual viral titre after each time point was measured by plaque method. The viral reduction values are illustrated in FIG. 26.

.phi.6 phage [2] = test: Viral inactivation in single unit platelet concentrates (UVA); format: cell-based; conditions: light or radiation study, 10 min
Experimental: (§1) Single unit platelet concentrates were obtained 24 hours after collection from certified blood banks. The platelets were subjected to soft spin to remove residual RBC and about 6 logs of .phi.6 phage and sensitizer 8B were added in PBS solution to obtain 0.03 mg/ml final sensitizer concentration. The samples were transferred to Stericonpolyolefin bag (which transmits 60% of UVA light) and irradiated from top (3.6 mW/cm^2)and bottom (3.4 mW/cm^2) in a home made reactor for 10 min. The bags were continuously mixed on extended glass platform attached to orbital shaker. The viral inactivation values and in vitro properties of platelet concentrates were monitored for 2 days after the treatment.
(§2) Single units of platelet concentrates in Cryocyte ™ bag containing 0.03
(§3) mg/mL #8B sensitizer (Appendix I) were irradiated from top (3.6
(§4) mW/cm^2) and bottom (3.4 mW/cm^2) using UVA radiation in a home
(§5) made reactor for 10 min (4.2 J/cm^2). After the treatment platelet
(§6) concentrates were transferred into original platelet containers and stored
(§7) in a platelet incubator for indicated period of time.
(§8) Platelet viability assays were carried out immediately after treatment and
following 24 & 48 hours storage in a platelet incubator. The viral
(§9) reduction in treated samples was determined by the plaque assay. The
(§10) values are mean ±S.D (n = 3)

[3] = system: single unit platelet concentrates; test: Platelet in vitro properties in single unit platelet concentrates after UVA treatment; format: cell-based; set-up: ADP Agg. / Collagen / HSR: unit not given here; conditions: for ADP Agg. / Cell count / Collagen / HSR / Morphology / pH: Treated, 0.03 mg/mL, UVA 10 min
Experimental: as §1, §2, §3, §4, §5, §6, §7, §8, §9, §10

.phi.6 phage [4] = test: Viral inactivation in red blood cells (UVA, full units); format: cell-based; conditions: Erythrocyte, light or radiation study
Experimental: (§11) Units of packed red cells were transferred to Stericon red cell freezing bags and the hematocrits were adjusted to 60% with PBS. The samples were spiked with 5×10^6 PFU/ml .phi.6 phage and 0.3 mg/mL sensitizer 8B. The contents of the bag were exposed to UVA light from top (3.6 mW/cm^2) and bottom (3.4 mW/cm^2) for 6 hours (151.2 J/cm^2). The samples were mixed continuously during UVA exposure on an orbital shaker. The final viral titre in the sample was determined by the plaque method. In vitro biochemical and biophysical properties of treated red cells were monitored for 7 days following the treatment.
(§12) Viral inactivation treatment was carried out in packed red cells (full
(§13) units, 60% Hct.) containing model virus (.phi.6 phage) and 8B sensitizer
(§14) (0.3 mg/mL) in a Sericon red cells freezing bag (altered). The bags were
(§15) irradiated from top (3.6 mW/cm^2) and bottom (3.4 mW/cm^2) in a
(§16) home made reactor for 6 hours (151.2 J/cm^2). The sample was mixed
(§17) continuously during UVA exposure on a orbital shaker.

red cells = test: Red cell in vitro properties after viral inactivation treatment (UVA); format: cell-based; set-up: MCV / MCH / MCHC: unit not given here; conditions: for % Hemichrome / % Met Hb. / % Oxy Hb. / MCH / MCHC / MCV / DI Max % control: Treated; for % Hemichrome / % Met Hb. / % Oxy Hb. / MCH / MCHC / MCV: UVA 6 hours; for DI Max % control: ektacytometry
Experimental: as §11
DI Max, Deformability index by ektacytometry
as §12, §13, §14, §15, §16, §17
Data was collected from 3 separate experiments and the values are mean

λ = test: Inactivation of viruses in human plasma and bovine serum with UV activation; format: cell-based, λ phage; conditions: light or radiation study, 0.5 h, Fetal bovine serum, 0.03 mg/ml, UVA 30 min (8.4 J/cm^2), read-out: Viral Reduction (log)
Experimental: Viral inactivation in FBS was carried out in 100 ml serum samples in 225 cm^2 tissue culture flask in the presence of sensitizer 8B (0.03 mg/ml). The sample was exposed to UVA light from top (3.6 mW/cm^2) and bottom (3.4 mW/cm^2) while continuously mixing on an orbital shaker for 30 min. (8.4 J/cm^2). Human plasma was irradiated in a Pyrex glass photolysis cell in the presence of sensitizer 8 (0.1 mg/ml) for 5 min. Inactivation of various bacteriophages were carried out using brominated psoralens in combination with UVA light. The results in Table 5 clearly indicate that 5-7 logs of viral reduction was obtained with various phage (enveloped and non-enveloped) in human plasma fractions and fetal bovine serum products.

[5] = system: Salmonella typhimurium TA100; test: Ames mutagenicity, plate incorporation assay; format: cell-based
Experimental: (§18) The standard Ames mutagenicity test using salmonella mutants was performed on brominated sensitizer 8B at 0.6 mg/ml.

[6] = system: Salmonella typhimurium TA1535; test: Ames mutagenicity, plate incorporation assay; format: cell-based
Experimental: as §18

[7] = system: Salmonella typhimurium TA1537; test: Ames mutagenicity, plate incorporation assay; format: cell-based
Experimental: as §18

[8] = system: Salmonella typhimurium TA1538; test: Ames mutagenicity, plate incorporation assay; format: cell-based
Experimental: as §18

[9] = system: Salmonella typhimurium TA98; test: Ames mutagenicity, plate incorporation assay; format: cell-based
Experimental: as §18

salmonella mutants = test: Ames mutagenicity, overall; format: cell-based, Salmonella typhimurium; conditions: 0.6 mg/ml; words
Experimental: as §18

- hypotonic shock response (HSR) and ADP aggregation response relative to the control (platelets): substantial reduction
SMILES: Cc1oc2c(C)c3oc(=O)cc(C)c3cc2c1CN [AMT, 4'-aminomethyl-4,5',8-trimethylpsoralen]
- cell damage (cell damage): unacceptable levels of cell damage

SMILES: CC[N+](CC)(CC)CCCOc1c2occc2c(Br)c2ccc(=O)oc12 [Sensitizer #8B, 5-Bromo-8 (γ-Triethylaminopropyloxy) Psoralen Hydrochloride]
- improvement in the level of viral inactivation (brominated versus non-brominated) (.phi.6 phage [1]): ≤ 400 fold
- log reduction at 30 µg/mL (.phi.6 phage [2]; Treated, 0 Hour, 0.03 mg/mL, UVA 10 min (4.2 J/cm^2), n = 4, read-out: V.I): 5.3 ± 0.2
- log reduction at 30 µg/mL (.phi.6 phage [2]; read-out: viral reduction): > 5.3
- platelet in vitro properties ([3]; Example 15 text, words): excellent retention of platelet in vitro properties
- ADP Agg. ([3]; 0 Hour): 43 ± 12
- Cell count ([3]; 0 Hour): 474 ± 20
- Collagen ([3]; 0 Hour): 72 ± 3
- HSR ([3]; 0 Hour): 65 ± 8
- Morphology ([3]; 0 Hour): 233 ± 17
- pH ([3]; 0 Hour): 7.2 ± 0.1
- ADP Agg. ([3]; 24 Hours): 34 ± 19
- Cell count ([3]; 24 Hours): 499 ± 50
- Collagen ([3]; 24 Hours): 65 ± 3
- HSR ([3]; 24 Hours): 65 ± 6
- Morphology ([3]; 24 Hours): 230 ± 19
- pH ([3]; 24 Hours): 7.1 ± 0.2
- Collagen ([3]; 43 Hours): 60 ± 4
- pH ([3]; 43 Hours): 6.8 ± 0.1
- HSR ([3]; 48 Hours): 70 ± 6
- log reduction at 300 µg/mL (.phi.6 phage [4]; 6 h, read-out: viral reduction): > 6.6
- log reduction at 300 µg/mL (.phi.6 phage [4]; Treated, Day 1, 0.3 mg/mL, UVA 6 hours (151.2 J/cm^2), read-out: Viral Reduction (log)): 6.6 ± 0.1
- in vitro biochemical and biophysical properties of red cells (red cells; Example 16 text, words): without any significant alterations
- % Hemichrome (red cells; Day 1, 0.3 mg/mL): 1.9 ± 1.5%
- % Met Hb. (red cells; Day 1, 0.3 mg/mL): 2.9 ± 1.5%
- % Oxy Hb. (red cells; Day 1, 0.3 mg/mL): 95.2 ± 0.1%
- MCH (red cells; Day 1, 0.3 mg/mL): 30.9 ± 0.1
- MCHC (red cells; Day 1, 0.3 mg/mL): 34.9 ± 0.4
- MCV (red cells; Day 1, 0.3 mg/mL): 88.8 ± 2.5
- DI Max % control (red cells; Day 1, 0.3 mg/mL): 97.4 ± 3.6 % control
- % Hemichrome (red cells; Day 2, 0.3 mg/mL): 0.6 ± 0.9%
- % Met Hb. (red cells; Day 2, 0.3 mg/mL): 1.7 ± 1.7%
- % Oxy Hb. (red cells; Day 2, 0.3 mg/mL): 97.7 ± 1.7%
- MCH (red cells; Day 2, 0.3 mg/mL): 30.3 ± 0.4
- MCHC (red cells; Day 2, 0.3 mg/mL): 33.8 ± 0.9
- MCV (red cells; Day 2, 0.3 mg/mL): 89.8 ± 1.7
- DI Max % control (red cells; Day 2, 0.3 mg/mL): 99.6 ± 3.8 % control
- % Hemichrome (red cells; Day 7, 0.3 mg/mL): 0.2 ± 0.2%
- % Met Hb. (red cells; Day 7, 0.3 mg/mL): 1.4 ± 1.2%
- % Oxy Hb. (red cells; Day 7, 0.3 mg/mL): 98.5 ± 1.0%
- MCH (red cells; Day 7, 0.3 mg/mL): 30.1 ± 0.8
- MCHC (red cells; Day 7, 0.3 mg/mL): 33.6 ± 1.6
- MCV (red cells; Day 7, 0.3 mg/mL): 89.8 ± 1.7
- DI Max % control (red cells; Day 7, 0.3 mg/mL): 99.0 ± 5.9 % control
- log reduction at 30 µg/mL (λ): 6.6
- Number of Revertan Colonies ([5]; TA100, with S-9, average of duplicate plates): 245
- Number of Revertan Colonies ([5]; TA100, without S-9, average of duplicate plates): 164
- Number of Revertan Colonies ([6]; TA1535, with S-9, average of duplicate plates): 197
- Number of Revertan Colonies ([6]; TA1535, without S-9, average of duplicate plates): 173
- Number of Revertan Colonies ([7]; TA1537, with S-9, average of duplicate plates): 26
- Number of Revertan Colonies ([7]; TA1537, without S-9, average of duplicate plates): 36
- Number of Revertan Colonies ([8]; TA1538, with S-9, average of duplicate plates): 25
- Number of Revertan Colonies ([8]; TA1538, without S-9, average of duplicate plates): 22
- Number of Revertan Colonies ([9]; TA98, with S-9, average of duplicate plates): 83
- Number of Revertan Colonies ([9]; TA98, without S-9, average of duplicate plates): 55
- mutagenicity (salmonella mutants): non-mutagenic

From patent US6187572A, “Method of inactivation of viral and bacterial blood contaminants” (Baxter International Inc., priority 1993, dated 2001)
